Source: the NIST ThermoML archive (doi:10.1016/j.fluid.2005.12.003)

Settings: 101.33 kPa, Liquid

CCCCn1cc[n+](C)c1.F[P-](F)(F)(F)(F)F [1-butyl-3-methylimidazolium hexafluorophosphate]
Settings | mass density [kg/m3]
283.13 K | 1380.43
293.12 K | 1372.15
293.3 K | 1371.88
302.83 K | 1363.87
303.3 K | 1363.48
312.68 K | 1355.45
313.17 K | 1355.18
322.64 K | 1347.23
323.23 K | 1346.72
332.56 K | 1338.7
333.66 K | 1337.95
342.41 K | 1330.79
343.27 K | 1329.87
